Source: the supplement of paper PMC10307832

What was measured:
Test in all cases: relative viability (nuclei count vs DMSO), 5 days (fraction); higher = more cells survive
Ibrutinib + Pemetrexed = compound: C=CC(=O)N1CCC[C@@H](n2nc(-c3ccc(Oc4ccccc4)cc3)c3c(N)ncnc32)C1 [Ibrutinib] + Nc1nc2[nH]cc(CCc3ccc(C(=O)N[C@@H](CCC(=O)O)C(=O)O)cc3)c2c(=O)[nH]1 [Pemetrexed] (partner 0.2 µM)
Procedure, shortened: (§1)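 Relative viability equals treated-well nuclei counts divided by vehicle-well nuclei counts. Counts came from 4× images of lung cancer cell lines grown in 1536-well plates for 5 days after pin-tool dosing on the day after seeding. Dosing used one drug alone or a fixed anchor-drug dose plus five library-drug doses (not always all listed) in √10 steps, and values are medians of duplicate plates.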

PAC-1 + Dasatinib = compound: C=CCc1cccc(/C=N/NC(=O)CN2CCN(Cc3ccccc3)CC2)c1O [PAC-1] + Cc1nc(Nc2ncc(C(=O)Nc3c(C)cccc3Cl)s2)cc(N2CCN(CCO)CC2)n1 [Dasatinib] (partner 0.075 µM)
Procedure, shortened: as §1

Ibrutinib + Olaparib = compound: C=CC(=O)N1CCC[C@@H](n2nc(-c3ccc(Oc4ccccc4)cc3)c3c(N)ncnc32)C1 [Ibrutinib] + O=C(c1cc(Cc2n[nH]c(=O)c3ccccc23)ccc1F)N1CCN(C(=O)C2CC2)CC1 [Olaparib] (partner 8 µM)
Procedure, shortened: as §1

BMX-IN-1 + Decitabine = compound: C=CC(=O)Nc1cc(-n2c(=O)ccc3cnc4ccc(-c5ccc(NS(C)(=O)=O)cc5)cc4c32)ccc1C [BMX-IN-1] + Nc1ncn([C@H]2C[C@H](O)[C@@H](CO)O2)c(=O)n1 [Decitabine] (partner 2 µM)
Procedure, shortened: as §1

SK-MES-1
relative viability (Ibrutinib + Pemetrexed; first compound 0.005 µM): 1.01
relative viability (Ibrutinib + Pemetrexed; first compound 0.01581 µM): 0.951
relative viability (Ibrutinib + Pemetrexed; first compound 0.05 µM): 0.905
relative viability (Ibrutinib + Pemetrexed; first compound 0.1581 µM): 1.14
relative viability (Ibrutinib + Pemetrexed; first compound 0.5 µM): 0.752
relative viability (PAC-1 + Dasatinib; first compound 0.02 µM): 0.359
relative viability (PAC-1 + Dasatinib; first compound 0.06325 µM): 0.516
relative viability (PAC-1 + Dasatinib; first compound 0.2 µM): 0.371
relative viability (PAC-1 + Dasatinib; first compound 2 µM): 0.401
relative viability (Ibrutinib + Olaparib; first compound 0.005 µM): 0.748
relative viability (Ibrutinib + Olaparib; first compound 0.01581 µM): 0.639
relative viability (Ibrutinib + Olaparib; first compound 0.05 µM): 0.652
relative viability (Ibrutinib + Olaparib; first compound 0.1581 µM): 0.879
relative viability (Ibrutinib + Olaparib; first compound 0.5 µM): 0.461
relative viability (BMX-IN-1 + Decitabine; first compound 0.02 µM): 0.398
relative viability (BMX-IN-1 + Decitabine; first compound 0.2 µM): 0.432
relative viability (BMX-IN-1 + Decitabine; first compound 0.6325 µM): 0.425
relative viability (BMX-IN-1 + Decitabine; first compound 2 µM): 0.637
